Assays:
Fusarium proliferatum [1] = test: In vitro antifungal activity, 96-well microtiter plates; format: cell-based; details: in vitro 25° C.; 10 days; natamycin 2.5 ppm, prothioconazole 0.5 ppm or both
Experimental: Subsequently, 100 μl of a Botrytis cinerea suspension prepared in PCB medium was used to inoculated each well with 2.5×10^3 spores/ml.
, the in vitro antifungal activity (%) of the individual active ingredients was assessed by calculating the reduction in mould growth observed in the presence of the active ingredient in comparison to the mould growth observed in the absence of the active ingredient. The expected antifungal activity (E in %) of the active ingredient combination was calculated according to the Colby equation (Colby, 1967): […]
The experiment was conducted as described in Example 13, except for the fact that the following compositions were tested:
Furthermore, Fusarium proliferatum was used for inoculation. The antifungal activity (in %) of the individual and combined active ingredients was determined according to the method described in Example 13.

Botrytis cinerea [2] = test: Treatment of wounded strawberries inoculated with Botrytis cinerea (mould growth); format: in vivo; details: 250 ppm natamycin; for Number of moulded wounds/total number of 12 wounds (title: Number of moulded strawberries): strawberries 20° C.; for Observed antifungal activity O: strawberries
Experimental: Twelve fresh, organic strawberries were used per treatment. Each strawberry was wounded with a 0.5 mm long cut and each wound was inoculated with 10 μl of a Botrytis cinerea suspension containing 1×10^5 of spores/ml. […] The antifungal compositions also comprised 1.00% (w/w) methylhydroxyethylcellulose (MHEC), 0.40% (w/w) xanthan gum, 0.20% (w/w) anti-foaming agent, 0.30% (w/w) citric acid, 0.39% (w/w) lactic acid and 0.11% (w/w) potassium sorbate. The pH of the composition was 4.0. A composition without natamycin or prothioconazole was used as control. The treated strawberries were incubated in a closed box in the dark at 20° C. for 3 days.
After 2 and 3 days of incubation, the mould growth on the strawberries was assessed in a twofold manner: (i) the number of moulded strawberries per total of 12 strawberries was counted; and (ii) the antifungal activity (in %) of the individual and combined active ingredients was determined by calculating the reduction in mould growth observed on the strawberries treated with the antifungal composition in comparison to the mould growth on the strawberries treated with the control composition according to the Colby method described in Example 4 (Colby, 1967).

Fusarium proliferatum [3] = test: Treatment of wounded bananas inoculated with Fusarium proliferatum (mould growth); format: in vivo; details: bananas 20° C.
Experimental: Four organic, unripe (green) bananas were used per treatment. The peel of each banana was wounded thrice using a cork borer according to the method described by de Lapeyre de Bellaire and Dubois (1987). Subsequently, each wound was inoculated with 15 μl of a Fusarium proliferatum suspension containing 1×10^5 of spores/ml. […] In addition, the antifungal compositions comprised 1.00% (w/w) methylhydroxyethylcellulose (MHEC), 0.40% (w/w) xanthan gum, 0.20% (w/w) anti-foaming agent, 0.30% (w/w) citric acid, 0.39% (w/w) lactic acid and 0.11% (w/w) potassium sorbate. The pH of the composition was 4.0. […] The treated, unripe bananas were incubated in a closed box in the dark at 20° C. and a relative air humidity of 95%, which was obtained in the presence of a saturated Na2HPO4 aqueous solution. During the first 20 days of incubation, a ripe (yellow) banana was included in the closed box to elevate the ethylene gas level and thus induce ripening of the treated, unripe bananas. […]
The expected antifungal activity (E in %) of the combined antifungal composition comprising both active ingredients was calculated according to the Colby equation (Colby, 1967): […]
wherein X and Y are the observed antifungal activities (in %) of the individual active ingredients X and Y, respectively. If the observed antifungal activity (O in %) of the combination exceeds the expected antifungal activity (E in %) of the combination and the synergy factor O/E is thus >1.0, the combined application of the active ingredients leads to a synergistic antifungal effect.

Botrytis cinerea [4] = test: In vitro antifungal activity, 96-well microtiter plates; format: cell-based; details: in vitro 25° C., natamycin 1.25 ppm
Experimental: The following compositions were tested: […] Subsequently, 100 μl of a Botrytis cinerea suspension prepared in PCB medium was used to inoculated each well with 2.5×10^3 spores/ml. […] The expected antifungal activity (E in %) of the active ingredient combination was calculated according to the Colby equation (Colby, 1967): […] wherein X and Y are the observed antifungal activities (in %) of the individual active ingredients X and Y, respectively.

Penicillium italicum = test: Treatment of wounded mandarins inoculated with Penicillium italicum (mould growth); format: in vivo
Experimental: Ten fresh, organic mandarins were used per treatment. The peel of each mandarin was wounded once using a cork borer according to the method described by de Lapeyre de Bellaire and Dubois (1987). Subsequently, each wound was inoculated with 10 μl of a Penicillium italicum suspension containing 1×10^4 of spores/ml. […] The pH of the composition was 4.0. […]

## OC(Cc1ccccc1Cl)(Cn1nc[nH]c1=S)C1(Cl)CC1 (stereo not shown) [Prothioconazole, prothioconazole]
Fusarium proliferatum [1]
  Observed antifungal activity O: 50%
Botrytis cinerea [2]; 500 ppm prothioconazole or both, Day 2
  Number of moulded wounds/total number of 12 wounds (title: Number of moulded strawberries): 12/12
Botrytis cinerea [2]; 500 ppm prothioconazole or both, Day 2, listed as prothioconazole
  Number of moulded wounds/total number of 12 wounds (title: Number of moulded strawberries): 12
Botrytis cinerea [2]; 500 ppm prothioconazole or both, Day 3
  Number of moulded wounds/total number of 12 wounds (title: Number of moulded strawberries): 12/12
Botrytis cinerea [2]; 500 ppm prothioconazole or both, Day 3, listed as prothioconazole
  Number of moulded wounds/total number of 12 wounds (title: Number of moulded strawberries): 12
Botrytis cinerea [2]; 500 ppm prothioconazole (row prints 50 ppm) or both, 3 days
  Observed antifungal activity O: 21%
Botrytis cinerea [2]; 500 ppm prothioconazole or both, 2 days
  Observed antifungal activity O: 14%
Fusarium proliferatum [3]; 250 ppm natamycin, 100 ppm prothioconazole or both, Day 27
  Number of moulded wounds/total number of 12 wounds: 11/12
Fusarium proliferatum [3]; 250 ppm natamycin, 100 ppm prothioconazole or both, Day 27, listed as prothioconazole
  Number of moulded wounds/total number of 12 wounds: 11
Fusarium proliferatum [3]; 250 ppm natamycin, 100 ppm prothioconazole or both, Day 28 and 29
  Number of moulded wounds/total number of 12 wounds: 12/12
Fusarium proliferatum [3]; 250 ppm natamycin, 100 ppm prothioconazole or both, Day 28 and 29, listed as prothioconazole
  Number of moulded wounds/total number of 12 wounds: 12
Fusarium proliferatum [3]; 500 ppm natamycin, 250 ppm prothioconazole or both, Day 27, 28 and 29
  Number of moulded wounds/total number of 12 wounds: 10/12
Fusarium proliferatum [3]; 500 ppm natamycin, 250 ppm prothioconazole or both, Day 27, 28 and 29, listed as prothioconazole
  Number of moulded wounds/total number of 12 wounds: 10
Botrytis cinerea [4]; 5 days, propiconazole 0.50 ppm, prothioconazole 0.13 ppm, or natamycin 1.25 ppm with either
  Observed antifungal activity O: 0%
Botrytis cinerea [4]; 10 days, prothioconazole 0.13 ppm or both
  Observed antifungal activity O: 50%
Penicillium italicum; 250 ppm natamycin, 150 ppm prothioconazole or both, 13 days
  Observed antifungal activity O: 86%
Penicillium italicum; 250 ppm natamycin, 150 ppm prothioconazole or both, 16 days
  Observed antifungal activity O: 82%
Penicillium italicum; 250 ppm natamycin, 150 ppm prothioconazole or both, 21 days
  Observed antifungal activity O: 71%
Penicillium italicum; 250 ppm natamycin, 150 ppm prothioconazole or both, 26 days
  Observed antifungal activity O: 63%
Penicillium italicum; 250 ppm natamycin, 150 ppm prothioconazole or both, 29 days
  Observed antifungal activity O: 40%
Penicillium italicum; 250 ppm natamycin, 150 ppm prothioconazole or both, 34 days
  Observed antifungal activity O: 27%
Penicillium italicum; 500 ppm natamycin, 600 ppm prothioconazole or both, 25 days
  Observed antifungal activity O: 91%
Penicillium italicum; 500 ppm natamycin, 600 ppm prothioconazole or both, 28 days
  Observed antifungal activity O: 83%
Penicillium italicum; 500 ppm natamycin, 600 ppm prothioconazole or both, 31 days
  Observed antifungal activity O: 71%
Penicillium italicum; 500 ppm natamycin, 600 ppm prothioconazole or both, 34 days
  Observed antifungal activity O: 63%

From patent publication US20150141248A1, “ANTIFUNGAL COMPOSITIONS” (DSM IP ASSETS B.V., priority 2011, published 2015)
